The NIST ThermoML archive (doi:10.1016/j.jct.2008.10.010)

Experiments:
[1] = molar heat capacity at constant pressure; conditions: 101.33 kPa, Liquid, Small sample (50 mg) DSC
[2] = 298.15 K; 101.33 kPa; Liquid; Pycnometric method
[3] = refractive index (Na D-line) (dimensionless); conditions: 298.15 K; 101.33 kPa; Liquid; Standard Abbe refractometry

OC1CCCC1 [cyclopentanol]
[1]
Conditions | molar heat capacity at constant pressure [J/K/mol]
284.16 K | 170.24
285.15 K | 170.99
286.16 K | 171.81
287.14 K | 172.53
288.15 K | 173.41
289.16 K | 174.28
290.14 K | 175.01
291.15 K | 175.87
292.16 K | 176.75
293.14 K | 177.58
294.15 K | 178.43
295.16 K | 179.3
296.14 K | 180.09
297.15 K | 180.97
298.14 K | 181.8
298.15 K | 181.82
298.16 K | 181.83
299.14 K | 182.68
300.15 K | 183.51
301.16 K | 184.44
302.14 K | 185.33
303.15 K | 186.22
304.16 K | 187.09
305.14 K | 188.03
306.15 K | 188.94
307.16 K | 189.83
308.14 K | 190.71
309.15 K | 191.61
310.16 K | 192.53
311.14 K | 193.42
312.15 K | 194.35
313.16 K | 195.28
314.14 K | 196.15
315.15 K | 197.1
316.16 K | 198.01
317.14 K | 198.91
318.15 K | 199.88
319.15 K | 200.81
320.14 K | 201.63
321.15 K | 202.63
322.15 K | 203.57
323.14 K | 204.44
324.15 K | 205.36
325.15 K | 206.28
326.16 K | 207.24
327.15 K | 208.09
328.15 K | 209.05
329.14 K | 209.96
330.14 K | 210.87
331.15 K | 211.73
332.14 K | 212.64
333.14 K | 213.55
334.15 K | 214.51
335.16 K | 215.32
336.14 K | 216.18
337.15 K | 217.08
338.16 K | 218.05
339.14 K | 218.88
340.15 K | 219.81
341.16 K | 220.6
342.14 K | 221.48
343.15 K | 222.33
344.16 K | 223.27
345.14 K | 224.05
346.15 K | 224.85
347.16 K | 225.68
348.14 K | 226.51
349.15 K | 227.32
350.15 K | 228.13
351.14 K | 228.9
352.15 K | 229.66
353.15 K | 230.44

Conditions | mass density [kg/m3] | refractive index
[2] | 942.86 | –
[3] | – | 1.4512
